Where “and” joins values, the source holds several entries; their conditions need not be identical. Identical values can stand only once.
Assays:
Experiment in all cases: radiometric filter-binding kinase assay, Kinase HotSpot
Conditions in all cases: compound 0.5 µM; ATP 10 µM
PLK1 (human) = PLK1 (human) (UniProt P53350)
SYK (human) = SYK (human) (UniProt P43405)
LIMK1 (human) = LIMK1 (human) (UniProt P53667)
NEK1 (human) = NEK1 (human) (UniProt Q96PY6)
ROS1 (human) = ROS1 (human) (UniProt P08922)
PRKCA (human) = PRKCA (human) (UniProt P17252)
[1] = target: TYK2 JH1 catalytic (human) (UniProt P29597)
LTK (human) = LTK (human) (UniProt P29376)
NEK9 (human) = NEK9 (human) (UniProt Q8TD19)
MAPK11 (human) = MAPK11 (human) (UniProt Q15759)
RPS6KA6 KD1 KD2 (human) = RPS6KA6 KD1 KD2 (human) (UniProt Q9UK32)
ULK2 (human) = ULK2 (human) (UniProt Q8IYT8)
MAPK14 (human) = MAPK14 (human) (UniProt Q16539)
FGFR3 (human) = FGFR3 (human) (UniProt P22607)
SGK2 (human) = SGK2 (human) (UniProt Q9HBY8)
CAMKK1 (human) = CAMKK1 (human) (UniProt Q8N5S9)
RPS6KB1 (human) = RPS6KB1 (human) (UniProt P23443)
GRK6 (human) = GRK6 (human) (UniProt P43250)
TBK1 (human) = TBK1 (human) (UniProt Q9UHD2)
PIM3 (human) = PIM3 (human) (UniProt Q86V86)
PRKCH (human) = PRKCH (human) (UniProt P24723)
HIPK1 (human) = HIPK1 (human) (UniProt Q86Z02)
Chain of HIPK1 (human) (Q86Z02 whole entry, looked up): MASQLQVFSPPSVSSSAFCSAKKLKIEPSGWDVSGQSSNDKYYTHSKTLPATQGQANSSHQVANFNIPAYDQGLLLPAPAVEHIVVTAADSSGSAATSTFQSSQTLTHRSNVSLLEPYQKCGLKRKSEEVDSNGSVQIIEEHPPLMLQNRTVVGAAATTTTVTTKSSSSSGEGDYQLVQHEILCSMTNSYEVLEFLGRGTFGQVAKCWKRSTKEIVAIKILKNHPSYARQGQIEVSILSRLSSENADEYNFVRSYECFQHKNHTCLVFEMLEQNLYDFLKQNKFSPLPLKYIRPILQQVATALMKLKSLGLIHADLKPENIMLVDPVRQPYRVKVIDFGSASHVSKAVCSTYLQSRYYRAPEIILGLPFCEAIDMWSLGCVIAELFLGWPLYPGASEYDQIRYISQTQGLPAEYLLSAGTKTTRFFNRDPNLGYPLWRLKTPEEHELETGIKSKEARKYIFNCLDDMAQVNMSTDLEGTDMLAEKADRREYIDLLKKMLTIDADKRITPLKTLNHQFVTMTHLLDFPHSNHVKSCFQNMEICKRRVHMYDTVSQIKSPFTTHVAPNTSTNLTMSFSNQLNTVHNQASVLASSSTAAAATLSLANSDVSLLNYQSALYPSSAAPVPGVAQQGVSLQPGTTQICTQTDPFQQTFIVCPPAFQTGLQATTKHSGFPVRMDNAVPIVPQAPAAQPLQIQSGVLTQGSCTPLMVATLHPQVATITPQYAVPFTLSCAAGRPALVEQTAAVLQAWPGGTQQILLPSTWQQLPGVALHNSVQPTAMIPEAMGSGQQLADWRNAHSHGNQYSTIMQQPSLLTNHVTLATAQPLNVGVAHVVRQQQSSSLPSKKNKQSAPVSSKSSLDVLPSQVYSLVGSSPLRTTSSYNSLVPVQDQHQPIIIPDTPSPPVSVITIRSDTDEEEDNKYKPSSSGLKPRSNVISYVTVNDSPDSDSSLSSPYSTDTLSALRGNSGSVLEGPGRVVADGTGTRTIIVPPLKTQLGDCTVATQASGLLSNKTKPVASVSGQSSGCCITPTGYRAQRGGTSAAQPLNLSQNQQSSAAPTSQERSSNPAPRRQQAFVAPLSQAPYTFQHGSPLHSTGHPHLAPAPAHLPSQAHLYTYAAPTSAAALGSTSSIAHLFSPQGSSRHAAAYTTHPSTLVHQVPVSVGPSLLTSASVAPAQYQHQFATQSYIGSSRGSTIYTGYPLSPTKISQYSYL

PDGFRB (human) = PDGFRB (human) (UniProt P09619)
Chain of PDGFRB (human) (P09619 whole entry, looked up): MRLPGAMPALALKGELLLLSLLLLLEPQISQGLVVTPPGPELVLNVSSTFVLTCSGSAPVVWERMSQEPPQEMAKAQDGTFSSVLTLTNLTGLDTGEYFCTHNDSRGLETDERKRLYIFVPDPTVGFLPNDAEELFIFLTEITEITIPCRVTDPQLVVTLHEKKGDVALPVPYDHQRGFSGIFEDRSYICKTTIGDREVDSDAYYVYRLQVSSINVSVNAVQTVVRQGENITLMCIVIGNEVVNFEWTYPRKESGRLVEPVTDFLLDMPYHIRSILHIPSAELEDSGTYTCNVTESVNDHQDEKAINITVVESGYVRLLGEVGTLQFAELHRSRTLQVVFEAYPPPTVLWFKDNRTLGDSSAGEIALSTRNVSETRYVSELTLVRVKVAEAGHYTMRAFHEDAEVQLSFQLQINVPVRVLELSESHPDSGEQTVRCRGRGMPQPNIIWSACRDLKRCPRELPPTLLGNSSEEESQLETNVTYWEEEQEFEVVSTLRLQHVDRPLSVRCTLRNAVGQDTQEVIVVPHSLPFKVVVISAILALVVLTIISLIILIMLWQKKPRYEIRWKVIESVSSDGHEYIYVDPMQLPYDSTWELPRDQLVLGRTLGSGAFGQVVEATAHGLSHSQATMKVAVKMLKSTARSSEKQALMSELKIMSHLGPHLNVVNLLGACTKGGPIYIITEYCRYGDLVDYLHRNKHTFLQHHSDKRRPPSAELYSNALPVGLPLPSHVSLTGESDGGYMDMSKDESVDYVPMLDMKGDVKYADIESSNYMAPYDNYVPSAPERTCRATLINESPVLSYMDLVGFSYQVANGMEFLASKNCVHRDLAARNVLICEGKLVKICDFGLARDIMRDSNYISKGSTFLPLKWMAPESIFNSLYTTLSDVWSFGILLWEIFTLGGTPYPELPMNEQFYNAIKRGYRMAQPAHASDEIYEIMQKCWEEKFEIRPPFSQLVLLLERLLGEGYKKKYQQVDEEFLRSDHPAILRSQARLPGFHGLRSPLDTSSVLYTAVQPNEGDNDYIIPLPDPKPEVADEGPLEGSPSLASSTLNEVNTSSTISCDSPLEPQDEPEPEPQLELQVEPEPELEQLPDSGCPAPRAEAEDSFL

CSNK1D (human) = CSNK1D (human) (UniProt P48730)
TAOK3 (human) = TAOK3 (human) (UniProt Q9H2K8)
SLK (human) = SLK (human) (UniProt Q9H2G2)
NEK11 (human) = NEK11 (human) (UniProt Q8NG66)
SRMS (human) = SRMS (human) (UniProt Q9H3Y6)
TGFBR1 (human) = TGFBR1 (human) (UniProt P36897)
CAMK1G (human) = CAMK1G (human) (UniProt Q96NX5)
CSNK2A1 (human) = CSNK2A1 (human) (UniProt P68400)
MST1R (human) = MST1R (human) (UniProt Q04912)
EPHA2 (human) = EPHA2 (human) (UniProt P29317)
CAMKK2 (human) = CAMKK2 (human) (UniProt Q96RR4)
CSNK1G2 (human) = CSNK1G2 (human) (UniProt P78368)
PAK3 (human) = PAK3 (human) (UniProt O75914)
PAK6 (human) = PAK6 (human) (UniProt Q9NQU5)
PRKG2 (human) = PRKG2 (human) (UniProt Q13237)
Chain of PRKG2 (human) (Q13237 whole entry, looked up): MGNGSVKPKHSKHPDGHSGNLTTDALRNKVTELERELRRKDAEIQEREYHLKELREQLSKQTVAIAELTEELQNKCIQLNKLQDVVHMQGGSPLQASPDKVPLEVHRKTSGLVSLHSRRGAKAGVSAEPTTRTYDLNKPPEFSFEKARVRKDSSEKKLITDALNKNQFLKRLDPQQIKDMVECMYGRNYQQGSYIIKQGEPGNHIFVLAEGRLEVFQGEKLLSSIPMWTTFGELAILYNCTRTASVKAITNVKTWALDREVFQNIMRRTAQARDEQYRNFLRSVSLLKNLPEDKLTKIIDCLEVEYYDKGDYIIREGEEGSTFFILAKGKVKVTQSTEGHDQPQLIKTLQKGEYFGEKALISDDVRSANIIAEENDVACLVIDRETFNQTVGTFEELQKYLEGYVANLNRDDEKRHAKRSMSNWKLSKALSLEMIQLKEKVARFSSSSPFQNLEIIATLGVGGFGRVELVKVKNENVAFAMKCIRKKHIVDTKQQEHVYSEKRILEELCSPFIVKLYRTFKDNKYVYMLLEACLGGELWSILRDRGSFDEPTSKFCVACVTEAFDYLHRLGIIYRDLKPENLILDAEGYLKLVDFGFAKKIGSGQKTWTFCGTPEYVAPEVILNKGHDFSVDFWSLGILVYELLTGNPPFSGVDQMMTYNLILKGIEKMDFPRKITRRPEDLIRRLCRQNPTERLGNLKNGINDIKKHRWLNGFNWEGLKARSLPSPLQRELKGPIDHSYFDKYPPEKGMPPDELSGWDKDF

LYN (human) = LYN (human) (UniProt P07948)
Chain of LYN (human) (P07948 whole entry, looked up): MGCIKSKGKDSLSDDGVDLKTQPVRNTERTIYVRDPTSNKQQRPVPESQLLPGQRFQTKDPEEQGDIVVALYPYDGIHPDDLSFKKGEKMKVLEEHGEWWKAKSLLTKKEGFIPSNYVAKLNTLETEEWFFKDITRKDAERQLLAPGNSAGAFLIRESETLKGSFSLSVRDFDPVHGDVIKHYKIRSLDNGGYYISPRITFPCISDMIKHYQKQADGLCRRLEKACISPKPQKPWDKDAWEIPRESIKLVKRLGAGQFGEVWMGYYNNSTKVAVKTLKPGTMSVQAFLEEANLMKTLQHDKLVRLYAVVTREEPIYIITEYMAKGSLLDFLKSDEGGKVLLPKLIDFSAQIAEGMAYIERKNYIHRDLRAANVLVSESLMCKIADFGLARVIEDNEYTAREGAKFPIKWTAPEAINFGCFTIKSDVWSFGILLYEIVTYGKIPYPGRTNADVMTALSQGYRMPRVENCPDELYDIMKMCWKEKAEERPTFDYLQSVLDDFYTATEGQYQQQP

ROCK2 (human) = ROCK2 (human) (UniProt O75116)
CAMK1D (human) = CAMK1D (human) (UniProt Q8IU85)
DYRK4 (human) = DYRK4 (human) (UniProt Q9NR20)

Chain of LIMK1 (human) (P53667 whole entry, looked up): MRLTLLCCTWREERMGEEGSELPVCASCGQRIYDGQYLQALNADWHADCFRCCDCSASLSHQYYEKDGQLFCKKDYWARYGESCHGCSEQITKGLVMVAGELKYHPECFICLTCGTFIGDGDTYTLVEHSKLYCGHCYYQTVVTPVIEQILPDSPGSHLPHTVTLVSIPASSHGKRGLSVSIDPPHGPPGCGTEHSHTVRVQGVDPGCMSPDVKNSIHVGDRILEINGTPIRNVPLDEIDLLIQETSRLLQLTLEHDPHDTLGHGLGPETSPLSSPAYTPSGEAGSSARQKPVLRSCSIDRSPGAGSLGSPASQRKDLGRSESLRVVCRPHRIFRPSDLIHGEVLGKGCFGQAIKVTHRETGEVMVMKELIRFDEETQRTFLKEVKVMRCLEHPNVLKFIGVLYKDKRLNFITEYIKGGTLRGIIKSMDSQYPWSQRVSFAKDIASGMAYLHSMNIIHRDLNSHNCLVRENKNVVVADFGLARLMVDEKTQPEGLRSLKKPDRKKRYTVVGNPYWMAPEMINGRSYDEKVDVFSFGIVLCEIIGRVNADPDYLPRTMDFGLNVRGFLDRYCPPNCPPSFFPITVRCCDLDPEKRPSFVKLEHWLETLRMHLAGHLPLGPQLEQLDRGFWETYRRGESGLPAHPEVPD

CCN(CC)C(=O)c1ccc(Nc2nc(OCC3CCCCC3)c3nc[nH]c3n2)cc1
residual activity (PLK1 (human)): 91.4% | residual activity (SYK (human)): 61.1% | residual activity (LIMK1 (human)): 35.2% | residual activity (NEK1 (human)): 53.1% | residual activity (ROS1 (human)): 69.9% | residual activity (PRKCA (human)): 82.5% | residual activity [1]: 4.96% | residual activity (LTK (human)): 66.1% | residual activity (NEK9 (human)): 81.9% | residual activity (MAPK11 (human)): 85.5% | residual activity (RPS6KA6 KD1 KD2 (human)): 46.2% | residual activity (ULK2 (human)): 84.9% | residual activity (MAPK14 (human)): 94.7% | residual activity (FGFR3 (human)): 66.9% | residual activity (SGK2 (human)): 94.4% | residual activity (CAMKK1 (human)): 96.8% | residual activity (RPS6KB1 (human)): 89.5% | residual activity (GRK6 (human)): 99.5% | residual activity (TBK1 (human)): 25.4% | residual activity (PIM3 (human)): 109% | residual activity (PRKCH (human)): 86.7% | residual activity (HIPK1 (human)): 104% | residual activity (PDGFRB (human)): 54.6% | residual activity (CSNK1D (human)): 102% | residual activity (TAOK3 (human)): 74.2% | residual activity (SLK (human)): 71.2% | residual activity (NEK11 (human)): 132% | residual activity (SRMS (human)): 84.7% | residual activity (TGFBR1 (human)): 100% | residual activity (CAMK1G (human)): 96.1% | residual activity (CSNK2A1 (human)): 87.4% | residual activity (MST1R (human)): 103% | residual activity (EPHA2 (human)): 90.6% | residual activity (CAMKK2 (human)): 97.5% | residual activity (CSNK1G2 (human)): 59.8% | residual activity (PAK3 (human)): 87.7% | residual activity (PAK6 (human)): 95.5% | residual activity (PRKG2 (human)): 80% | residual activity (LYN (human)): 78.2% and 89.7% | residual activity (ROCK2 (human)): 39.8% | residual activity (CAMK1D (human)): 101% | residual activity (DYRK4 (human)): 93.6%

CNc1cc2c(Nc3cccc(Br)c3)ncnc2cn1
residual activity (PLK1 (human)): 93.5% | residual activity (SYK (human)): 95.3% | residual activity (LIMK1 (human)): 95.9% | residual activity (NEK1 (human)): 70.3% | residual activity (ROS1 (human)): 89.1% | residual activity (PRKCA (human)): 101% | residual activity [1]: 80.8% | residual activity (LTK (human)): 76.2% | residual activity (NEK9 (human)): 99.4% | residual activity (MAPK11 (human)): 115% | residual activity (RPS6KA6 KD1 KD2 (human)): 81.8% | residual activity (ULK2 (human)): 119% | residual activity (MAPK14 (human)): 90% | residual activity (FGFR3 (human)): 85.4% | residual activity (SGK2 (human)): 96.6% | residual activity (CAMKK1 (human)): 92.6% | residual activity (RPS6KB1 (human)): 97.4% | residual activity (GRK6 (human)): 91.1% | residual activity (TBK1 (human)): 94.5% | residual activity (PIM3 (human)): 55.2% | residual activity (PRKCH (human)): 95.7% | residual activity (HIPK1 (human)): 96.5% | residual activity (PDGFRB (human)): 86.4% | residual activity (CSNK1D (human)): 98.7% | residual activity (TAOK3 (human)): 94% | residual activity (SLK (human)): 63% | residual activity (NEK11 (human)): 106% | residual activity (SRMS (human)): 100% | residual activity (TGFBR1 (human)): 97.7% | residual activity (CAMK1G (human)): 97.9% | residual activity (CSNK2A1 (human)): 94.3% | residual activity (MST1R (human)): 73.9% | residual activity (EPHA2 (human)): 95.3% | residual activity (CAMKK2 (human)): 80% | residual activity (CSNK1G2 (human)): 95.8% | residual activity (PAK3 (human)): 98.8% | residual activity (PAK6 (human)): 96.6% | residual activity (PRKG2 (human)): 102% | residual activity (LYN (human)): 63.9% and 81.9% | residual activity (ROCK2 (human)): 99.5% | residual activity (CAMK1D (human)): 92.5% | residual activity (DYRK4 (human)): 87.5%

Nc1ccc2ncnc(NCCc3ccc(Oc4ccccc4)cc3)c2c1
residual activity (PLK1 (human)): 91.1% | residual activity (SYK (human)): 102% | residual activity (LIMK1 (human)): 101% | residual activity (NEK1 (human)): 102% | residual activity (ROS1 (human)): 97.8% | residual activity (PRKCA (human)): 103% | residual activity [1]: 99.9% | residual activity (LTK (human)): 106% | residual activity (NEK9 (human)): 95.8% | residual activity (MAPK11 (human)): 98.1% | residual activity (RPS6KA6 KD1 KD2 (human)): 103% | residual activity (ULK2 (human)): 103% | residual activity (MAPK14 (human)): 95.7% | residual activity (FGFR3 (human)): 101% | residual activity (SGK2 (human)): 99.6% | residual activity (CAMKK1 (human)): 119% | residual activity (RPS6KB1 (human)): 99.5% | residual activity (GRK6 (human)): 99.3% | residual activity (TBK1 (human)): 100% | residual activity (PIM3 (human)): 104% | residual activity (PRKCH (human)): 97.9% | residual activity (HIPK1 (human)): 104% | residual activity (PDGFRB (human)): 105% | residual activity (CSNK1D (human)): 100% | residual activity (TAOK3 (human)): 102% | residual activity (SLK (human)): 102% | residual activity (NEK11 (human)): 105% | residual activity (SRMS (human)): 99.2% | residual activity (TGFBR1 (human)): 97.7% | residual activity (CAMK1G (human)): 102% | residual activity (CSNK2A1 (human)): 95.2% | residual activity (MST1R (human)): 97.2% | residual activity (EPHA2 (human)): 103% | residual activity (CAMKK2 (human)): 92.6% | residual activity (CSNK1G2 (human)): 100% | residual activity (PAK3 (human)): 102% | residual activity (PAK6 (human)): 105% | residual activity (PRKG2 (human)): 105% | residual activity (LYN (human)): 101% and 103% | residual activity (ROCK2 (human)): 90.7% | residual activity (CAMK1D (human)): 102% | residual activity (DYRK4 (human)): 93.7%

O=C1NC(=O)/C(=C/c2ccc3c(c2)OC(F)(F)O3)S1
residual activity (PLK1 (human)): 92.9% | residual activity (SYK (human)): 95.3% | residual activity (LIMK1 (human)): 96.4% | residual activity (NEK1 (human)): 79.6% | residual activity (ROS1 (human)): 88.5% | residual activity (PRKCA (human)): 106% | residual activity [1]: 88.4% | residual activity (LTK (human)): 95.5% | residual activity (NEK9 (human)): 109% | residual activity (MAPK11 (human)): 95.7% | residual activity (RPS6KA6 KD1 KD2 (human)): 96.5% | residual activity (ULK2 (human)): 100% | residual activity (MAPK14 (human)): 86.7% | residual activity (FGFR3 (human)): 96.4% | residual activity (SGK2 (human)): 82.2% | residual activity (CAMKK1 (human)): 86% | residual activity (RPS6KB1 (human)): 85.1% | residual activity (GRK6 (human)): 95.4% | residual activity (TBK1 (human)): 93.3% | residual activity (PIM3 (human)): 39.8% | residual activity (PRKCH (human)): 92.7% | residual activity (HIPK1 (human)): 95.9% | residual activity (PDGFRB (human)): 97.4% | residual activity (CSNK1D (human)): 98.9% | residual activity (TAOK3 (human)): 84.7% | residual activity (SLK (human)): 98.3% | residual activity (NEK11 (human)): 111% | residual activity (SRMS (human)): 103% | residual activity (TGFBR1 (human)): 102% | residual activity (CAMK1G (human)): 107% | residual activity (CSNK2A1 (human)): 22.6% | residual activity (MST1R (human)): 100% | residual activity (EPHA2 (human)): 96.3% | residual activity (CAMKK2 (human)): 82.9% | residual activity (CSNK1G2 (human)): 84.5% | residual activity (PAK3 (human)): 93.1% | residual activity (PAK6 (human)): 103% | residual activity (PRKG2 (human)): 104% | residual activity (LYN (human)): 98.1% and 99.9% | residual activity (ROCK2 (human)): 92.4% | residual activity (CAMK1D (human)): 83.2% | residual activity (DYRK4 (human)): 97.7%
